{
  "source": "patent US9532968B1",
  "about": "“Fumarate compounds, pharmaceutical compositions thereof, and methods of use” (priority 2015, dated 2017)",
  "origin": "cited, not measured here",
  "data": [
    {"molecule": "COC(=O)/C=C/C(=O)OC", "note": "[DMF, dimethylfumarate]", "values": [
      {"measurement": "aqueous solubility", "value": "poor"}
    ]}
  ]
}
